From the NIST ThermoML archive (doi:10.1021/je900969u)

Legend:
[1] = 101 kPa, Liquid
[2] = xn = mol fraction of the nth substance listed; conditions: 101 kPa, Liquid

CN1CCNCC1 [N-methylpiperazine]
[1]
Conditions | mass density [kg/m3] | viscosity [mPa·s]
298.15 K | 899.28 | 1.856
303.15 K | 894.9 | 1.544
313.15 K | 886.07 | 1.25

CN1CCNCC1 [N-methylpiperazine] + CC1CCCCC1
[2]
Conditions | mass density, 298.15 K [kg/m3] | mass density, 303.15 K [kg/m3] | mass density, 313.15 K [kg/m3] | viscosity, 298.15 K [mPa·s] | viscosity, 303.15 K [mPa·s] | viscosity, 313.15 K [mPa·s]
x1 = 0.0988 | 775.01 | 770.65 | 761.89 | 0.716 | 0.676 | 0.582
x1 = 0.1972 | 785.84 | 781.44 | 772.64 | 0.751 | 0.698 | 0.604
x1 = 0.297 | 797.52 | 793.12 | 784.26 | 0.801 | 0.73 | 0.634
x1 = 0.3964 | 811.57 | 805.63 | 796.74 | 0.867 | 0.776 | 0.674
x1 = 0.4953 | 822.93 | 818.51 | 809.59 | 0.945 | 0.84 | 0.725
x1 = 0.5948 | 836.59 | 832.17 | 823.26 | 1.057 | 0.918 | 0.791
x1 = 0.6952 | 850.68 | 846.26 | 837.34 | 1.19 | 1.022 | 0.868
x1 = 0.7969 | 865.9 | 861.49 | 852.58 | 1.362 | 1.164 | 0.97
x1 = 0.8977 | 881.36 | 876.96 | 868.08 | 1.585 | 1.326 | 1.087
x1 = 1 | 899.28 | 894.9 | 886.07 | 1.856 | 1.544 | 1.25

CN1CCNCC1 [N-methylpiperazine] + CCCCCCC
[2]
Conditions | mass density, 298.15 K [kg/m3] | mass density, 303.15 K [kg/m3] | mass density, 313.15 K [kg/m3] | viscosity, 298.15 K [mPa·s] | viscosity, 303.15 K [mPa·s] | viscosity, 313.15 K [mPa·s]
x1 = 0.1006 | 695.86 | 691.57 | 682.9 | 0.429 | 0.395 | 0.36
x1 = 0.2012 | 713.24 | 708.91 | 700.2 | 0.466 | 0.438 | 0.389
x1 = 0.3006 | 731.62 | 727.27 | 718.49 | 0.511 | 0.481 | 0.424
x1 = 0.4014 | 751.5 | 747.13 | 738.3 | 0.571 | 0.533 | 0.467
x1 = 0.5007 | 772.43 | 768.04 | 759.18 | 0.648 | 0.599 | 0.527
x1 = 0.5996 | 794.38 | 789.99 | 781.1 | 0.756 | 0.699 | 0.603
x1 = 0.7 | 818.02 | 813.61 | 804.71 | 0.905 | 0.815 | 0.691
x1 = 0.7979 | 842.73 | 838.32 | 829.43 | 1.094 | 0.995 | 0.826
x1 = 0.9036 | 871.01 | 866.62 | 857.75 | 1.474 | 1.234 | 1.024
x1 = 1 | 899.28 | 894.9 | 886.07 | 1.856 | 1.544 | 1.25

CCCCCCC [heptane]
[1]
Conditions | mass density [kg/m3] | viscosity [mPa·s]
298.15 K | 679.72 | 0.404
303.15 K | 675.46 | 0.383
313.15 K | 666.84 | 0.342

CCCCCCC [heptane] + CN1CCNCC1
[2], x2 = 0
Conditions | mass density [kg/m3] | viscosity [mPa·s]
298.15 K | 679.72 | 0.404
303.15 K | 675.46 | 0.383
313.15 K | 666.84 | 0.342

CC1CCCCC1 [methylcyclohexane]
[1]
Conditions | mass density [kg/m3] | viscosity [mPa·s]
298.15 K | 765 | 0.719
303.15 K | 760.67 | 0.655
313.15 K | 751.94 | 0.573

CC1CCCCC1 [methylcyclohexane] + CN1CCNCC1
[2], x2 = 0
Conditions | mass density [kg/m3] | viscosity [mPa·s]
298.15 K | 765 | 0.719
303.15 K | 760.67 | 0.655
313.15 K | 751.94 | 0.573
